Laboratory results taken from patent US12312359B2 (Vitae Pharmaceuticals, LLC, priority 2016, dated 2025).

Target: T1, biotinylated wild-type menin and MLL-AF9 fusion protein (menin/MLL binding) (Homo sapiens, UniProt O00255)
T1 construct: made in house; host or cells: menin: E. coli; MLL-AF9-FLAG: HEK293 cells, used as cleared lysate
T1 sequence (O00255 1-610): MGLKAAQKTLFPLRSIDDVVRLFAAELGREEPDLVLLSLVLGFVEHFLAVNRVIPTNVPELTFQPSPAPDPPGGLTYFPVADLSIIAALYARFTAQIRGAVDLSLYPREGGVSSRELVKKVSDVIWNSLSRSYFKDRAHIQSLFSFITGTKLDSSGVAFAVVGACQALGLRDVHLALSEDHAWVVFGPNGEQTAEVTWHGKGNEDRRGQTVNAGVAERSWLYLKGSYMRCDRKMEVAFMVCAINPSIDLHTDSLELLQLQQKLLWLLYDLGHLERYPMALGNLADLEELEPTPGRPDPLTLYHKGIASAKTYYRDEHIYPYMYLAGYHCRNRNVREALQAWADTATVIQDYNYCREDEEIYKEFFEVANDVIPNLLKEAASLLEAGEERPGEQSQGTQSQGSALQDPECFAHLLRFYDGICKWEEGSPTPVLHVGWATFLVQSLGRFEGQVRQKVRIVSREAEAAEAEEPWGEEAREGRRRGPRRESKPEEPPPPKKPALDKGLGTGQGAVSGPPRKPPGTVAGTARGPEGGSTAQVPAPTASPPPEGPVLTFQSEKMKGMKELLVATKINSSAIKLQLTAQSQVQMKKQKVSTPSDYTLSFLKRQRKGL
Experiment: Assay 1: menin/MLL binding AlphaLISA assay, wild-type menin
Conditions: Table 30; column head does not say wild-type or mutated menin
Description: Potencies of inhibitor compounds against menin/MLL binding were assessed by AlphaLISA assay using biotinylated (1) wild-type menin or (2) mutated menin (described in Huang et al, 2012, Nature, 482, 542-546) and MLL-AF9 fusion protein bearing a FLAG epitope at its C-terminus. Menin proteins were expressed in E. coli and covalently modified with biotin using EZ-Link™ Sulfo-NHS-Biotin (ThermoFisher Cat.No. 21217) according to manufacturer's protocol. MLL1-1,396 fused to AF91-92 and the C-terminal FLAG peptide was expressed in HEK293 cells and used as a lysate cleared at 21,000×g for 10 min.
Compounds (2 μL of solutions in DMSO) were dispensed in white 96-well half-area plates (Corning Cat.No. 3693) and incubated for 30 min at RT with 5 nM biotinylated menin and appropriate amount of MLL-AF9-FLAG lysate in 40 μL of 50 mM Tris-HCl buffer pH 7.4 containing 5% (v/v) DMSO, 50 mM NaCl, 0.01% (w/v) bovine serum albumin (BSA) and 1 mM DTT. To this incubation mixture, 40 μL of AlphaLISA anti-FLAG acceptor (PerkinElmer Cat.No. AL112C) and streptavidin donor (PerkinElmer Cat.No. 6760002) beads (10 μg/mL each) was added and incubation continued at RT for 60 min. Alpha (amplified luminescent proximity homogeneous assay) signal was measured on an Envision multi-label plate reader at the end of the incubation. All steps were conducted under dim fluorescent light.
These percent inhibition values were regressed against compound concentrations in the assay using four parameter logit non-linear curve fitting (XLFit, IDBS). The IC50 values were derived from the curve fitting as inflection points on the dose-response curves and are set out in Table 30 below.

| IC50 | Compound |
| --- | --- |
| < 0.1 µM | CC(C)N(C(=O)c1cc(F)ccc1Oc1cncnc1N1CCC2(CCC(N)(Cc3ccc(C#N)cc3)C2)C1)C(C)C (single isomer, unassigned) [Example 22B, 2-((4-(7-amino-7-(4-cyanobenzyl)-2-azaspiro[4.4]nonan-2-yl)pyrimidin-5-yl)oxy)-5-fluoro-N,N-diisopropylbenzamide] |
| 0.1 to 1 µM | CC(C)N(C(=O)c1cc(F)ccc1Oc1cncnc1N1CCC2(CC(O)C(Cc3ccc4[nH]c(=O)[nH]c4c3)C2)C1)C(C)C (single isomer, unassigned) [Example 23B, 5-fluoro-2-((4-(7-hydroxy-8-((2-oxo-2,3-dihydro-1H-benzo[d]imidazol-5-yl)methyl)-2-azaspiro[4.4]nonan-2-yl)pyrimidin-5-yl)oxy)-N,N-diisopropylbenzamide] |
| 0.1 to 1 µM | CC(C)n1nccc1-c1cc(F)ccc1Oc1cncnc1N1CCC2(CCN(C(=O)C(N)C3CCCCC3)C2)C1 (single isomer, unassigned) [Example 206B, 2-amino-2-cyclohexyl-1-(7-(5-(4-fluoro-2-(1-isopropyl-1H-pyrazol-5-yl)phenoxy)pyrimidin-4-yl)-2,7-diazaspiro[4.4]nonan-2-yl)ethanone] |
| 0.1 to 1 µM | CC(C)n1nccc1-c1cc(F)ccc1Oc1cncnc1N1CCC2(CCN(C(=O)C(N)C3CCCCC3)C2)C1 (single isomer, unassigned) [Example 206C, 2-amino-2-cyclohexyl-1-(7-(5-(4-fluoro-2-(1-isopropyl-1H-pyrazol-5-yl)phenoxy)pyrimidin-4-yl)-2,7-diazaspiro[4.4]nonan-2-yl)ethanone] |
| 0.1 to 1 µM | N#Cc1ccc(-c2cc(F)ccc2Oc2cncnc2N2CCC3(CCC(N)(Cc4ccccc4)C3)C2)c(C2CC2)c1 (single isomer, unassigned) [Example 250A, 2′-((4-(7-amino-7-benzyl-2-azaspiro[4.4]nonan-2-yl)pyrimidin-5-yl)oxy)-2-cyclopropyl-5′-fluoro-[1,1′-biphenyl]-4-carbonitrile] |
| < 0.1 µM | CC(C)n1nccc1-c1cc(F)ccc1Oc1cncnc1N1CCC2(CC(=O)N(Cc3ccc4[nH]c(=O)[nH]c4c3)C2)C1 (centres unmarked) [Example 13, 5-((7-(5-(4-fluoro-2-(1-isopropyl-1H-pyrazol-5-yl)phenoxy)pyrimidin-4-yl)-3-oxo-2,7-diazaspiro[4.4]nonan-2-yl)methyl)-1H-benzo[d]imidazol-2(3H)-one] |
| < 0.1 µM | Cc1noc(C(C)C)c1-c1cc(F)ccc1Nc1cncnc1N1CC2(CN(CC3CCOCC3)C2)C1 [Example 14A, N-(4-fluoro-2-(5-isopropyl-3-methylisoxazol-4-yl)phenyl)-4-(6-((tetrahydro-2H-pyran-4-yl)methyl)-2,6-diazaspiro[3.3]heptan-2-yl)pyrimidin-5-amine] |
| 0.1 to 1 µM | CP(C)(=O)c1cc(F)ccc1Oc1cncnc1N1CCC2(CCN(Cc3ccc4[nH]c(=O)[nH]c4c3)C2)C1 (centres unmarked) [Example 17, 5-((7-(5-(2-(dimethylphosphoryl)-4-fluorophenoxy)pyrimidin-4-yl)-2,7-diazaspiro[4.4]nonan-2-yl)methyl)-1H-benzo[d]imidazol-2(3H)-one] |
| 0.1 to 1 µM | CC(C)c1ncncc1-c1cc(F)ccc1Oc1cncnc1N1CCC2(CC(NCc3ccc(F)cc3)CO2)C1 (centres unmarked) [Example 20, 7-(5-(4-fluoro-2-(4-isopropylpyrimidin-5-yl)phenoxy)pyrimidin-4-yl)-N-(4-fluorobenzyl)-1-oxa-7-azaspiro[4.4]nonan-3-amine] |
| 0.1 to 1 µM | CNC(=O)[C@H]1CC[C@H](CN2CCC3(CC2)CN(c2ncncc2Oc2ccc(F)cc2C(=O)N(C)C(C)C)C3)CC1 [Example 21, 5-fluoro-N-isopropyl-N-methyl-2-((4-(7-(((1r,4r)-4-(methylcarbamoyl)cyclohexyl)methyl)-2,7-diazaspiro[3.5]nonan-2-yl)pyrimidin-5-yl)oxy)benzamide] |
| < 0.1 µM | CC(C)c1ccccc1-c1cc(F)ccc1Nc1cnccc1N1CC2(CN(CC3CCOCC3)C2)C1 [Example 30, N-(5-fluoro-2′-isopropyl-[1,1′-biphenyl]-2-yl)-4-(6-((tetrahydro-2H-pyran-4-yl)methyl)-2,6-diazaspiro[3.3]heptan-2-yl)pyridin-3-amine] |
| < 0.1 µM | CC(C)(F)c1cc(F)ccc1-c1cc(F)ccc1Oc1cncnc1N1CC2(CN(CC3CCOCC3)C2)C1 [Example 31, 2-(5-((4′,5-difluoro-2′-(2-fluoropropan-2-yl)-[1,1′-biphenyl]-2-yl)oxy)pyrimidin-4-yl)-6-((tetrahydro-2H-pyran-4-yl)methyl)-2,6-diazaspiro[3.3]heptane] |
| < 0.1 µM | CC(C)NS(=O)(=O)c1cc(F)ccc1Oc1cncnc1N1CC2(CN(CC3CCOCC3)C2)C1 [Example 32, 5-fluoro-N-isopropyl-2-((4-(6-((tetrahydro-2H-pyran-4-yl)methyl)-2,6-diazaspiro[3.3]heptan-2-yl)pyrimidin-5-yl)oxy)benzenesulfonamide] |
| 0.1 to 1 µM | CC1(C)C(=O)Nc2cc(CN3CCC4(C3)CN(c3ncncc3Oc3ccc(F)cc3Cl)C4)ccc21 [Example 39, 6-((2-(5-(2-chloro-4-fluorophenoxy)pyrimidin-4-yl)-2,6-diazaspiro[3.4]octan-6-yl)methyl)-3,3-dimethylindolin-2-one] |
| 0.1 to 1 µM | CC(C)n1nccc1-c1cc(F)ccc1Oc1cnc(Cl)nc1N1CCC2(CCN(Cc3ccc4[nH]c(=O)[nH]c4c3)C2)C1 (centres unmarked) [Example 46, 5-((7-(2-chloro-5-(4-fluoro-2-(1-isopropyl-1H-pyrazol-5-yl)phenoxy)pyrimidin-4-yl)-2,7-diazaspiro[4.4]nonan-2-yl)methyl)-1,3-dihydro-2H-benzo[d]imidazol-2-one] |
| < 0.1 µM | O=c1[nH]c2ccc(CN3CCC4(CCN(c5ncncc5Oc5ccc(F)cc5-c5ccccc5C5CC5)C4)C3)cc2[nH]1 (centres unmarked) [Example 49, 5-((7-(5-((2′-cyclopropyl-5-fluoro-[1,1′-biphenyl]-2-yl)oxy)pyrimidin-4-yl)-2,7-diazaspiro[4.4]nonan-2-yl)methyl)-1H-benzo[d]imidazol-2(3H)-one] |
| < 0.1 µM | O=c1[nH]c2ccc(CN3CCC4(CCN(c5ncncc5Oc5ccc(F)cc5-c5ccccc5C(F)(F)F)C4)C3)cc2[nH]1 (centres unmarked) [Example 50, 5-((7-(5-((5-fluoro-2′-(trifluoromethyl)-[1,1′-biphenyl]-2-yl)oxy)pyrimidin-4-yl)-2,7-diazaspiro[4.4]nonan-2-yl)methyl)-1H-benzo[d]imidazol-2(3H)-one] |
| ≥ 1 µM | CCOC(=O)c1csc(N2CCC3(CCN(c4ncncc4Oc4ccc(F)cc4-c4ccc(C#N)cc4C4CC4)C3)C2)n1 (centres unmarked) [Example 55, Ethyl 2-(7-(5-((4′-cyano-2′-cyclopropyl-5-fluoro-[1,1′-biphenyl]-2-yl)oxy)pyrimidin-4-yl)-2,7-diazaspiro[4.4]nonan-2-yl)thiazole-4-carboxylate] |
| ≥ 1 µM | N#Cc1ccc(-c2cc(F)ccc2Oc2cncnc2N2CCC3(CCN(c4nc(C(=O)O)cs4)C3)C2)c(C2CC2)c1 (centres unmarked) [Example 56, 2-(7-(5-((4′-cyano-2′-cyclopropyl-5-fluoro-[1,1′-biphenyl]-2-yl)oxy)pyrimidin-4-yl)-2,7-diazaspiro[4.4]nonan-2-yl)thiazole-4-carboxylicacid] |
| < 0.1 µM | CNC(=O)c1csc(N2CCC3(CCN(c4ncncc4Oc4ccc(F)cc4-c4ccc(C#N)cc4C4CC4)C3)C2)n1 (centres unmarked) [Example 57, 2-(7-(5-((4′-cyano-2′-cyclopropyl-5-fluoro-[1,1′-biphenyl]-2-yl)oxy)pyrimidin-4-yl)-2,7-diazaspiro[4.4]nonan-2-yl)-N-methylthiazole-4-carboxamide] |
